Calls of active or inactive are those of the source.
Legend:
[1] = target: T1, Endoribonuclease toxin MazF (Escherichia coli K-12, UniProt P0AE70); experiment: activation of MazEF endoribonuclease cleavage – biochemical, fluorescence, single-stranded RNA substrate, uHTS hits, dose response (AID 588481); format: functional
T1 sequence (P0AE70 whole entry): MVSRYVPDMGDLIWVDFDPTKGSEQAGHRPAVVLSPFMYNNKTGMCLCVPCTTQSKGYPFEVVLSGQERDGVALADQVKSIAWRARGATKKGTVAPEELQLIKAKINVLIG

[2] = target: T1, Endoribonuclease toxin MazF; experiment: MazEF toxin-antitoxin RNase activation – biochemical, fluorescence, single-stranded RNA substrate, SAR follow-up (AID 588603); format: functional
[3] = target: T1, Endoribonuclease toxin MazF; experiment: substrate-only fluorescence increase artefacts – biochemical, single-stranded RNase substrate, counter-screen for MazEF activator project, dose response (AID 588502); format: functional
[4] = target: T1, Endoribonuclease toxin MazF; experiment: SAR analysis of small molecule activators of the MazEF TA System via a fluorescence-based single-stranded RNase assay counterscreen. [Related pubchem assays (depositor defined):AID504720, AID504743]; format: functional
MEF = experiment: SAR analysis of small molecule cytotoxicity of MazEF TA System activators in embryonic fibroblast (MEF) cells. [Related pubchem assays (depositor defined):AID504720, AID504743]; format: functional; details: Mus musculus
INS1 = experiment: INS-1E survival protection against cytokine death – cell-based, luminescence, retest, dose response (AID 449756); format: functional; details: Rattus norvegicus;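 also: cell death triggered by IL-1 beta plus TNF-alpha plus IFN-gamma mixture; protective hits raise ATP signal compared with cytokine alone wells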
Genome polyprotein = Genome polyprotein (dengue virus type 2, UniProt P29990); experiment: flavivirus cap methylation enzyme inhibition – biochemical, confirmation dose response, primary screen (AID 588689); format: functional
Sequence of Genome polyprotein (P29990 2492-3391 limits assumed): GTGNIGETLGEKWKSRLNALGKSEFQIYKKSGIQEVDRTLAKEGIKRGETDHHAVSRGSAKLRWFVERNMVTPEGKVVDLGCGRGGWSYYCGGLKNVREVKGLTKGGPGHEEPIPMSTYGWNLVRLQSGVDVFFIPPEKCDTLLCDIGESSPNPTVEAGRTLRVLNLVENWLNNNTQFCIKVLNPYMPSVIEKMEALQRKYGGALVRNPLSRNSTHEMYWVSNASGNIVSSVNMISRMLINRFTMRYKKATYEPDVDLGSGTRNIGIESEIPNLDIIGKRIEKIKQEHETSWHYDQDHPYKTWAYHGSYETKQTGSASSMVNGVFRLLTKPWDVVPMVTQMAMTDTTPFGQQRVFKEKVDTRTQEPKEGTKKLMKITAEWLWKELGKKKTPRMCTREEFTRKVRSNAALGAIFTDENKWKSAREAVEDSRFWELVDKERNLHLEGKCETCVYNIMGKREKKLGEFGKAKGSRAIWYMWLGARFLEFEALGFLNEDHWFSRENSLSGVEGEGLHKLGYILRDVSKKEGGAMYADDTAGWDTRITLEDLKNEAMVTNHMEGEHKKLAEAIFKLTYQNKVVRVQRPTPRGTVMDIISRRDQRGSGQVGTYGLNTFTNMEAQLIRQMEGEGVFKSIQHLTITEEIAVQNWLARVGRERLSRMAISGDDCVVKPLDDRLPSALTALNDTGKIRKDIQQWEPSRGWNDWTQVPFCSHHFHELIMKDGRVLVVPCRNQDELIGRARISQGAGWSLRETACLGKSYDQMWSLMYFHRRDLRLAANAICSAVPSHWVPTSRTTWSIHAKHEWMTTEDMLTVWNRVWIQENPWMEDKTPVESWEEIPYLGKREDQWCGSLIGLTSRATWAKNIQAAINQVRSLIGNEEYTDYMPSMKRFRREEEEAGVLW

[5] = target: T2, Replicative DNA helicase DnaB (Mycobacterium tuberculosis, UniProt P9WMR3); experiment: DnaB intein splicing inhibitors, dose response, biochemical, cell-free fluorescence (AID 449749); format: functional
T2 sequence (P9WMR3 whole entry): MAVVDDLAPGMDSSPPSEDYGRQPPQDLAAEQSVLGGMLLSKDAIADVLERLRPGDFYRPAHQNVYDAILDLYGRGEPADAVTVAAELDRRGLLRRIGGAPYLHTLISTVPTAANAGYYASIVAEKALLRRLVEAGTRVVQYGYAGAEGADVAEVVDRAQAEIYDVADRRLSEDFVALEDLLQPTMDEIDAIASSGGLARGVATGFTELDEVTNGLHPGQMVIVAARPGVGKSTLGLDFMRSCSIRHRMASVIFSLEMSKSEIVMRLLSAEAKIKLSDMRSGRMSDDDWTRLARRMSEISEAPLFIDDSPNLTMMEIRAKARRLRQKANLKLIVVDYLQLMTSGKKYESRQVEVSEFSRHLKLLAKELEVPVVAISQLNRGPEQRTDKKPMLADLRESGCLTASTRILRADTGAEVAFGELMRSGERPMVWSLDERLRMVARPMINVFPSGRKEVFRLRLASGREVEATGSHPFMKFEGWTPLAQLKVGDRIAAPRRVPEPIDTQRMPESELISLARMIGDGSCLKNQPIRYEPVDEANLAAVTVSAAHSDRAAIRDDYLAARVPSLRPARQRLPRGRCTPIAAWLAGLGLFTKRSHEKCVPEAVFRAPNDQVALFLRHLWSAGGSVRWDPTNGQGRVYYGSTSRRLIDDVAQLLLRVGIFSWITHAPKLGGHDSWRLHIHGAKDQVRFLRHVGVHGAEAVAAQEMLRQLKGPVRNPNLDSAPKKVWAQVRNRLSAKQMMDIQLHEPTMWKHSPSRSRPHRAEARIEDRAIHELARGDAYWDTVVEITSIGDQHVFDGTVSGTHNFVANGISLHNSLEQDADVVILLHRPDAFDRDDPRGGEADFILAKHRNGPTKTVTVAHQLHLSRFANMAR

Caspase-6 = target: T3, Caspase-6 (Homo sapiens, UniProt P55212); experiment: inhibition of CASP6 peptide cleavage – biochemical, VEID-R110 fluorescence, cherry-pick, dose response (AID 720632)
T3 sequence (P55212 whole entry): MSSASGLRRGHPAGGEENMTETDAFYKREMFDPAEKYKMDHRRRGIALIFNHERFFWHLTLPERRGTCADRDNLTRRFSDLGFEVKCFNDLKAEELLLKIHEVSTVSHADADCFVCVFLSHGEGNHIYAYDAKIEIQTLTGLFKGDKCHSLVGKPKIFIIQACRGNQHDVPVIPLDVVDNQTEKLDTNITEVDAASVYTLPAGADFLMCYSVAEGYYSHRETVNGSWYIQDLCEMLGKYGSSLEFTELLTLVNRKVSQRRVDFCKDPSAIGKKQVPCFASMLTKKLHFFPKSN

Protein S100-A4 = Protein S100-A4 (Homo sapiens, UniProt P26447); experiment: human S100A4 peptide interaction inhibition curves – biochemical, fluorescence polarization, cherry-picked hits, dose response (AID 687001); format: functional
Sequence of Protein S100-A4 (P26447 whole entry): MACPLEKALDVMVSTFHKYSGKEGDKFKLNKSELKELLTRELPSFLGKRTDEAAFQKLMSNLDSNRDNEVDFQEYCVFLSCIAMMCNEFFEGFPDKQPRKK

Vero = experiment: viability of Vero cells under compound – cytotoxicity control for flavivirus capping enzyme inhibitors (AID 588742); format: functional; details: Chlorocebus sabaeus
[6] = target: T4, Heat shock factor protein 1 (Mus musculus, UniProt P38532); experiment: decrease of HSF1-responsive luciferase luminescence – cell-based, NIH3T3, dose retest, confirmation (AID 2382); format: functional;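 also: NIH3T3 fibroblasts with HSF1-driven luciferase reporter stressed by proteasome inhibitor MG132; luminescence from HSF1-driven luciferase expression after 8 hours of MG132 stress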
T4 sequence (P38532 whole entry): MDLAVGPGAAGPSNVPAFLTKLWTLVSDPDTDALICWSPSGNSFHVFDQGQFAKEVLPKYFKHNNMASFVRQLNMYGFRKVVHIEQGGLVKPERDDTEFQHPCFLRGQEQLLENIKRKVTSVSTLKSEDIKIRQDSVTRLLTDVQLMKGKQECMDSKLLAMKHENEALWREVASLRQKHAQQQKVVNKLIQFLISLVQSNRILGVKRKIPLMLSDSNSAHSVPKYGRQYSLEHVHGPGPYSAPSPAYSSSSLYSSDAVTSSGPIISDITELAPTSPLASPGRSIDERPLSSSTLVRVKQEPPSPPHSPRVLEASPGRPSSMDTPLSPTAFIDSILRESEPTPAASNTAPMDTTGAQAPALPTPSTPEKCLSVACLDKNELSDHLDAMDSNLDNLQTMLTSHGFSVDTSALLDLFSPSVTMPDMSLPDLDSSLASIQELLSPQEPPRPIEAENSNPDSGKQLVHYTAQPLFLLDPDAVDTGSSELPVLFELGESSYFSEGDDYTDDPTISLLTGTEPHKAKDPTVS

Protein RecA = target: T5, Protein RecA (Mycobacterium tuberculosis, UniProt P9WHJ3); experiment: Fluorescence Cell-Free Homogeneous Dose Retest to Identify Inhibitors of RecA-Intein Splicing Activity. [Related pubchem assays (depositor defined):AID2097, AID2223, AID489010, AID492950]; format: functional
T5 sequence (P9WHJ3 whole entry): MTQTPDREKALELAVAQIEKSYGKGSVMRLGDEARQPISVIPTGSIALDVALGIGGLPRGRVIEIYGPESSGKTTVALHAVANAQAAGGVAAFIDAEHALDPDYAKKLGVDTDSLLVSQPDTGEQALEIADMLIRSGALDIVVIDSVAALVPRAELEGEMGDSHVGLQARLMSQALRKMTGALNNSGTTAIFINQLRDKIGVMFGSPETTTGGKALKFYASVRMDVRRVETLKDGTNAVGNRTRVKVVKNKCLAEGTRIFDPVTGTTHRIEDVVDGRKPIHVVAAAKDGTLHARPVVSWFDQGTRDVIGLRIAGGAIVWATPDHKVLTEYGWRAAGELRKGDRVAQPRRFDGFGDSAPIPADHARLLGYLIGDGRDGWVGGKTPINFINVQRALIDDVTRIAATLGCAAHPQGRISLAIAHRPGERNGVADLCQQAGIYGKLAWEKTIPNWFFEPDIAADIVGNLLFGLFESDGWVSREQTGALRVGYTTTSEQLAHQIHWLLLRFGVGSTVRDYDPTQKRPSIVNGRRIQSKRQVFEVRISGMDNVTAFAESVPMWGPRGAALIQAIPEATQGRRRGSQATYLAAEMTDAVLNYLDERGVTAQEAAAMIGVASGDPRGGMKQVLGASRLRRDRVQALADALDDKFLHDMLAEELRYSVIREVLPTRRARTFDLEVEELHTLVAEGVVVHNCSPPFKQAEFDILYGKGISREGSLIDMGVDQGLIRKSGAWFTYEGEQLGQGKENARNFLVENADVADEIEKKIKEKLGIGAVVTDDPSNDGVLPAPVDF

[7] = target: T6, Tyrosyl-DNA phosphodiesterase 2 (Homo sapiens, UniProt O95551); experiment: potency against TDP2 phosphodiesterase activity – biochemical, epi absorbance, IC50, dose response (AID 743297)
T6 sequence (O95551 whole entry): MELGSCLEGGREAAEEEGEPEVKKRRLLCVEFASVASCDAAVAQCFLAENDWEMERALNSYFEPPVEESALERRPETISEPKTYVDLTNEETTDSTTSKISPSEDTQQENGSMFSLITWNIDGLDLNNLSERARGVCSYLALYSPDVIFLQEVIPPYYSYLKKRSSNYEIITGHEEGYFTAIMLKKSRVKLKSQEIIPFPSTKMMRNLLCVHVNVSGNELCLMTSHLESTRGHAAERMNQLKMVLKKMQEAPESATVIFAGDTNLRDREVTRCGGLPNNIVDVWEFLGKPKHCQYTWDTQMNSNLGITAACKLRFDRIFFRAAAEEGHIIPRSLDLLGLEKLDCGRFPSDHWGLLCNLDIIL

SMILES: Cc1ccc(C(=O)Oc2cc(N)n(S(=O)(=O)c3ccc(F)cc3)n2)cc1
- EC50 [1]: 5.26 µM (active)
- EC50 [2]: > 99 µM (inactive)
- EC50 [3]: 4.1 µM (active)
- EC50 [4]: > 99 µM (inactive)
- CC50 (MEF): > 99 µM (inactive)

SMILES: CCC(CNc1cc(OC)cc2cccnc12)NC1CCCCC1 (centres undefined)
- AC50 (INS1): 7.62 µM (active)
- IC50 (Genome polyprotein): 39.2 µM (active)
- AC50 [5]: > 380 µM (inactive)
- AC50 (Caspase-6): 39 µM (active)
- AC50 (Protein S100-A4): 5.07 µM (active)
- CC50 (Vero): > 40 µM (active)
- EC50 [6]: > 195 µM (not active)
- EC50 (Protein RecA): 1.95 µM (active)
- IC50 [7]: 113 µM (inactive)
